Assay results: PMC6017631, “The Effect of Combining Natural Terpenes and Antituberculous Agents against Reference and Clinical Mycobacterium tuberculosis Strains” (Molecules : A Journal of Synthetic Chemistry and Natural …, 2018)
Converted amounts (≈) assume the structure as drawn. Read-outs that look alike come from different tables or passages of the source. Marks after values point to notes of the source that are not given here.

Experiments:
[1] = test system: Mtb H37Ra ATTC 25177; assay: MIC determination, serial dilution in Middlebrook 7H9, and FICI; format: cell-based, Mycobacterium tuberculosis
[2] = test system: clinical isolate 192 (susceptible); assay: microbe, parasite or virus in culture; format: cell-based, Mycobacterium tuberculosis
[3] = test system: GMK cells; assay: Cytotoxicity, MTT assay; format: cell-based, African green monkey; settings: GMK cells, 48 h exposure, MTT; highest tested concentration 500 μg/mL
Protocol: (§1) The cytotoxicity experiment was performed using African green monkey kidney epithelial cells (GMK) obtained from BIOMED-Lublin S.A. (Lublin, Poland). The cells were cultured in EMEM medium (ATCC-LGC Standards, Cumberland, ME, USA) supplemented with 10% foetal bovine serum (FBS, Pan-Biotech, Aidenbach, Germany), penicillin (100 U/mL), and streptomycin (100 μg/mL) (Sigma-Aldrich, St. Louis, MO, USA). The GMK cells were maintained at 37 °C in a humidified atmosphere of 5% CO2 and 95% air. The GMK cells were seeded in 96-multiwell plates in 100 μL of the complete EMEM medium at a concentration of 3 × 10^5 cells/mL (3 × 10^4 cells/well) and the plates were maintained at 37 °C for 24 h. Then, the culture medium was replaced with 100 µL of different concentrations of tested agents and 2 reference anti-mycobacterial drugs—rifampicin and isoniazid. The stock solutions of all compounds were prepared in DMSO (Sigma-Aldrich, St. Louis, MO, USA), thus the highest solvent concentrations (1% and 0.5% DMSO) used in the experiment were tested in parallel to exclude potential toxicity associated with the use of DMSO. Different concentrations of the tested agents were obtained by six serial 2-fold dilutions using culture medium (the highest tested concentration was equal 500 µg/mL). GMK cells maintained in culture medium without anti-mycobacterial agent served as a negative control of cytotoxicity. The cells were exposed to tested compounds and reference drugs for 48 h, then cytotoxicity test was performed using MTT assay (Sigma-Aldrich, St. Louis, MO, USA) as it was described previously. The cytotoxicity test was repeated in three separate experiments (n = 3) and each experiment was carried out in quadruplicate. The IC50 values (concentration reducing viability of GMK cells by 50%) were determined using GraphPad Prism 5, Version 5.03 software (GraphPad Software, Inc., La Jolla, CA, USA).

[4] = test system: clinical isolate 253/16; assay: microbe, parasite or virus in culture; format: cell-based, Mycobacterium tuberculosis
[5] = test system: H37RV ATTC 25618; assay: MIC determination, serial dilution in Middlebrook 7H9, and FICI; format: cell-based, Mycobacterium tuberculosis
[6] = Cytotoxicity, MTT assay; format: cell-based, African green monkey; settings: African green monkey; for IC50 at 48 h: GMK cells, 48 h exposure, MTT, highest tested concentration 500 μg/mL
Protocol: as §1

[7] = test system: reference virulent strain H37Rv; set-up: method as in PMID 26400221; settings: Alamar Blue technique, 8 days of incubation ref 36; cited from earlier work
[8] = test system: Vero cell line; settings: cited from earlier work
[9] = compounds tested separately, 192
[10] = compounds tested separately, 253/16
[11] = compounds tested separately, H37Rv
[12] = Mycobacterium tuberculosis, compounds tested separately, read-out: MIC
[13] = Mycobacterium tuberculosis, compounds tested separately, H37Rv, read-out: MIC
[14] = GMK cells (African green monkey kidney epithelial cells)
[15] = Mycobacterium tuberculosis, H37RV
[16] = Mycobacterium tuberculosis, subinhibitory concentration of the terpene, read-out: MIC for EMB in a Presence of Terpenes
[17] = Mycobacterium tuberculosis, subinhibitory concentration of the terpene, read-out: MIC for INH in a Presence of Terpenes
[18] = Mycobacterium tuberculosis, subinhibitory concentration of the terpene, read-out: MIC for RMP in a Presence of Terpenes
[19] = Mycobacterium tuberculosis, read-out: MIC for EMB in a Presence of Terpenes
[20] = Mycobacterium tuberculosis, read-out: MIC for INH in a Presence of Terpenes
[21] = Mycobacterium tuberculosis, read-out: MIC for RMP in a Presence of Terpenes
[22] = Mycobacterium tuberculosis, H37RV, read-out: MIC for INH in a Presence of Terpenes
[23] = Mycobacterium tuberculosis, H37Rv, subinhibitory concentration of the terpene, read-out: MIC for EMB in a Presence of Terpenes
[24] = Mycobacterium tuberculosis, H37Rv, subinhibitory concentration of the terpene, read-out: MIC for RMP in a Presence of Terpenes

In the case of `C=C(C)[C@H]1CC=C(C)CC1` [(R)-limonene], the MIC ([1]; compounds tested separately) is reported as 32 µg/mL, the MIC [2, 9] is reported as 128 µg/mL (≈ 940 µM) and the “IC50 (cytotoxicity)” value [3] is reported as >500 µg/mL. For the same compound, the MIC [4, 10] was 256 µg/mL (≈ 1880 µM) and the MIC [5, 11] was 128 µg/mL.

With `CC[C@@H](CO)NCCN[C@@H](CC)CO` [EMB, ethambutol, reference compound] the MIC [1, 12] was 4 µg/mL, the MIC ([2]; Mycobacterium tuberculosis) was < 0.125 µg/mL and the MIC ([4]; Mycobacterium tuberculosis) was 64 µg/mL (≈ 313 µM). The MIC [5, 13] was 0.25 µg/mL.

With `NNC(=O)c1ccncc1` [INH, isoniazid, reference compound] the MIC [1, 12] was 0.125 µg/mL, the MIC ([2]; Mycobacterium tuberculosis) was < 0.125 µg/mL and the IC50 at 48 h [6, 14] was > 500 µg/mL. The MIC ([4]; Mycobacterium tuberculosis) was 8 µg/mL (≈ 58.3 µM) and the MIC [5, 15] was < 0.125 µg/mL.

For `CO[C@H]1/C=C/O[C@@]2(C)Oc3c(C)c(O)c4c(O)c(c(/C=N/N5CCN(C)CC5)c(O)c4c3C2=O)NC(=O)/C(C)=C\C=C\[C@H](C)[C@H](O)[C@@H](C)[C@@H](O)[C@@H](C)[C@H](OC(C)=O)[C@@H]1C` [RMP, rifampicin, reference compound], the MIC [1, 12] was 1 µg/mL, the MIC ([2]; Mycobacterium tuberculosis) was < 0.125 µg/mL and the IC50 at 48 h [6, 14] was 142 µg/mL (≈ 172 µM). For the same compound, the MIC ([4]; Mycobacterium tuberculosis) was 4 µg/mL (≈ 4.86 µM) and the MIC [5, 13] was 0.25 µg/mL.

For `CC(C)=CCC[C@](C)(O)C1CC=C(C)CC1` (stereo partly drawn) [bisabolol], the MIC ([1]; compounds tested separately) was 64 µg/mL, the MIC [2, 9] was 16 µg/mL (≈ 72 µM) and the “IC50 (cytotoxicity)” value [3] was 71.12 µg/mL (≈ 320 µM). The MIC [4, 10] was 128 µg/mL (≈ 576 µM) and the MIC [5, 11] was 16 µg/mL.

In the case of `Cc1ccc(C(C)C)cc1O` [carvacrol], the MIC [7] is given as 2.02 µg/mL (≈ 13.4 µM).

`C=CC(=C)CCC=C(C)C` [myrcene] showed an MIC [1, 12] of 128 µg/mL, an MIC [1, 16] of 0.5 µg/mL and an MIC [1, 17] of 0.0625 µg/mL. For the same compound, the MIC [1, 18] was 0.125 µg/mL, the MIC ([2]; Mycobacterium tuberculosis) was 256 µg/mL (≈ 1880 µM) and the MIC [2, 19] was < 0.125 µg/mL. The MIC [2, 20] was < 0.125 µg/mL, the MIC [2, 21] was < 0.125 µg/mL and the MIC ([4]; Mycobacterium tuberculosis) was > 512 µg/mL. For the same compound, the MIC [4, 19] was 64 µg/mL, the MIC [4, 20] was 8 µg/mL and the MIC [4, 21] was 4 µg/mL. For the same compound, the “IC50 (cytotoxicity)” value ([8]; determined on Vero cell Line ref 31) was 200 * μg/mL, the cytotoxic activity ([8]; up to a concentration of 200 μg/mL, Vero cell line ref 33) was “did not present cytotoxic activity” and the MIC [5, 15] was 256 µg/mL. For the same compound, the MIC [5, 22] was < 0.125 µg/mL, the MIC [5, 23] was 0.25 µg/mL and the MIC [5, 24] was 0.25 µg/mL.

In the case of `Cc1ccc(C(C)C)cc1` [p-cymene], the MIC [7] is listed as 91 µg/mL (≈ 678 µM).

In the case of `C=C1CCC2(C(C)C)CC12` (stereo not drawn) [sabinene], the MIC [1, 12] is reported as 64 µg/mL, the MIC [1, 16] is reported as 0.5 µg/mL and the MIC [1, 17] is reported as 0.0625 µg/mL. For the same compound, the MIC [1, 18] was 0.0625 µg/mL, the MIC ([2]; Mycobacterium tuberculosis) was 128 µg/mL (≈ 940 µM) and the MIC [2, 19] was < 0.125 µg/mL. For the same compound, the MIC [2, 20] was < 0.125 µg/mL, the MIC [2, 21] was < 0.125 µg/mL and the IC50 at 48 h [6] was 348 µg/mL (≈ 2550 µM). For the same compound, the MIC ([4]; Mycobacterium tuberculosis) was 256 µg/mL (≈ 1880 µM), the MIC [4, 19] was 64 µg/mL and the MIC [4, 20] was 8 µg/mL. The MIC [4, 21] was 4 µg/mL, the MIC [5, 15] was 128 µg/mL and the MIC [5, 22] was < 0.125 µg/mL. The MIC [5, 23] was 0.25 µg/mL and the MIC [5, 24] was 0.25 µg/mL.

For `Cc1ccc(C(C)C)c(O)c1` [thymol], the MIC [7] is given as 0.78 µg/mL (≈ 5.19 µM).

`CC1=CCC2CC1C2(C)C` (stereo not drawn) [α-pinene] gave an MIC [1, 12] of 128 µg/mL, an MIC [1, 16] of 1 µg/mL and an MIC [1, 17] of 0.125 µg/mL. The MIC [1, 18] was 0.0625 µg/mL, the MIC ([2]; Mycobacterium tuberculosis) was 128 µg/mL (≈ 940 µM) and the MIC [2, 19] was < 0.125 µg/mL. For the same compound, the MIC [2, 20] was < 0.125 µg/mL, the MIC [2, 21] was < 0.125 µg/mL and the IC50 at 48 h [6, 14] was > 500 µg/mL. For the same compound, the viability at 48 h, 500 µg/mL ([6]; GMK cells (African green monkey kidney epithelial cells), exposure to the highest tested concentration (500 μg/mL)) was ~90%, the MIC ([4]; Mycobacterium tuberculosis) was 256 µg/mL (≈ 1880 µM) and the MIC [4, 19] was 32 µg/mL. It also gave an MIC [4, 20] of 8 µg/mL, an MIC [4, 21] of 4 µg/mL and an MIC [5, 15] of 128 µg/mL. The MIC ([5]; Mycobacterium tuberculosis, H37RV, read-out: MIC for EMB in a Presence of Terpenes) was 0.125 µg/mL, the MIC [5, 22] was < 0.125 µg/mL and the MIC [5, 24] was 0.25 µg/mL.

For `C=C1CC/C=C(\C)CC[C@@H]2[C@@H]1CC2(C)C` [β-caryophyllene], the MIC [7] is listed as 100 µg/mL (≈ 489 µM).

For `C=C[C@]1(C)CC[C@@H](C(=C)C)C[C@H]1C(=C)C` [β-elemene], the MIC ([1]; compounds tested separately) was 32 µg/mL, the MIC [2, 9] was 256 µg/mL (≈ 1250 µM) and the MIC [4, 10] was >512 µg/mL. For the same compound, the MIC [5, 11] was 256 µg/mL.

With (S)-limonene the MIC ([1]; compounds tested separately) was 32 µg/mL, the MIC [2, 9] was 256 µg/mL and the “IC50 (cytotoxicity)” value [3] was >500 µg/mL. The MIC [4, 10] was >512 µg/mL and the MIC [5, 11] was 256 µg/mL.
